Assay results: patent publication US9944668B2, “Manganese-based magnetic resonance contrast agents” (The General Hospital Corporation, priority 2013, dated 2018)

Columns and labels:
Assay type in all cases: physicochemical
[1] = T1 relaxivity (r1) measurement at 1.4 T, 37° C., TRIS buffer pH 7.4; settings: for r1 (relaxivity): pH 7.4, 37° C., 1.4 Tesla, TRIS buffer
Description: (§1) Liquid chromatography-electrospray mass spectrometry (LC-MS) was performed using an Agilent 1100 Series apparatus with an LC/MSD trap and Daly conversion dynode detector with UV detection at 220, 254 and 280 nm. The methods used on this system are as follows: (a) Luna C18 column (100×2 mm); eluent A: H2O/0.1% formic acid, B: MeCN/0.1% formic acid; gradient: 5% B to 95% B over 9 minutes; flow rate 0.8 mL/min (used for characterization of organic compounds), and (b) Kromasil C18 column (250×4.6 mm); eluent C: 95% MeCN/5% 10 mM ammonium acetate, D: 10 mM ammonium acetate; gradient 5% C to 8% C over 14 minutes; flow rate 0.8 ml/min (used for characterization of manganese complexes). Reversed-phase semipreparative purification was performed on a Rainin Dynamax HPLC system with UV detection at 254 nm using a Polaris C18 column. The method used for purification is as follows: The mobile phase A was 50 mM ammonium acetate buffer, pH 6.5 and mobile phase B was a mixture of 5% 50 mM ammonium acetate buffer, pH 6.5/95% MeCN. Starting from 5% B, the fraction of B increased to 8% over 23 minutes. The column was washed with 100% B for 2 minutes and then ramped to 5% B. The system was re-equilibrated at 5% B for 3 minutes. Relaxivity measurements were performed on a Bruker mq60 Minispec at 1.4 T and 37° C. Manganese concentrations were determined using an Agilent 7500a ICP-MS system. All samples were diluted with 0.1% Triton X-100 in 5% nitric acid containing 20 ppb of Lu (as internal standard). The ratio of Mn (54.94)/Lu(174.97) was used to quantify the manganese concentration. A linear calibration curve ranging from 0.1 ppb to 200 ppb was generated daily for the quantification. UV-Vis spectra were recorded on a SpectraMax M2 spectrophotometer using quartz cuvette with a 1 cm path length. Cyclic voltammetry of Mn^IIHBET, Mn^IIEDTA and Mn^IIIHBET was recorded using a Nuvant EZstat pro potentiostat in TRIS buffer (pH=7.4), containing 0.5M KNO3 as supporting electrolyte, at 100 mVs-1 scan rate. Glassy carbon was used as the working electrode, Ag/AgCl served as the reference electrode and Pt wire was used as the auxiliary electrode. The K4FeCN6/K3FeCN6 couple was used as the internal standard.
T1 was measured with an inversion recovery pulse sequence taking 10 inversion times. Relaxivity was determined from the slope of a plot of 1/T1 vs. concentration of in TRIS buffer, pH=7.4 at 37° C. The concentration of manganese in each stock solution was determined using ICP-MS.

[2] = Cyclic voltammetry of manganese complexes (Mn(III)/Mn(II) redox couple); settings: for Half-cell potential: pH 7.4, vs. normal hydrogen electrode (NHE)
Description: as §1

[3] = T1 relaxivity measurement by MR imaging at 4.7 T; settings: room temperature, pH 7.4 TRIS buffer
Description: MR imaging was performed using a Bruker Biospec 4.7 T system. Three samples (˜500 μL) were placed in a homemade sample holder and imaged using a volume coil. Acquisition matrix=64×256 for 0.234×0.312 mm^2 in-plane resolution; slice thickness=5 mm. T1-weighted images were obtained with a fast low angle shot (FLASH) gradient echo sequence: TR/TE/FA=20/5.44/40° with 8 averages. T1 was determined using a 2D rapid acquisition refocused echo (RARE) inversion recovery sequence: TR=3200 ms, TE=9.7 ms. Inversion times (TI): 5, 45, 85, 165, 325, 645, 1285, 1925 and 3205 ms. T1 was obtained from a nonlinear least square fit of the signal intensity (SI(t)) vs. TI curve where T1, SI(0) and a are adjustable parameters, equation S2. SI(t)=SI(0)[1−α,e^TI/T1] (eq. S2)

[4] = Kinetics of reduction of Mn^III-HBET by glutathione; settings: 37° C., pH 7.4; first-order in both [GSH] and [Mn^III-HBET]
Description: This series of kinetic experiments were conducted at 37° C. (pH 7.4) to determine the empirical rate law for the reduction of Mn^III-HBET by glutathione. […] This feature was used to monitor the reduction of […] over time. Initial reaction rates were measured at a three different glutathione concentrations (5 mM, 10 mM and 20 mM). Additionally, for each glutathione concentration, the reaction was performed at four different initial concentrations of Mn^III-HBET (0.3 mM, 0.4 mM, 0.5 mM and 0.6 mM). By using a large excess of glutathione in these experiments, we found the reaction behaved pseudo first-order with respect to the […] complex as expressed in equation S1. [Mn^IIIHBET]t=[Mn^IIIHBET]o·e^−k^obs^·t (eq. S1)
Here, the observed rate constant (kobs) is simply the product of the actual rate constant (k) and [GSH], t is time, and the subscripts ‘t’ and ‘o’ refer to the concentration at time ‘t’ or the initial concentration, respectively. […] In this way, the slope of each line is equal to −k·[GSH] and the intercept is In[MnIII-HBET]o. Based on these experiments, we determined that the reaction was first-order in both [GSH] and [Mn^III-HBET] with an overall second-order rate constant of (3.8±0.3)×10^−1M^−1s^−1.

[5] = Relaxivity (r1) at different field strengths in HEPES buffer; settings: 37° C., pH 7.4 HEPES buffer
Description: The relaxivities of the compounds for Formulas (XI) and (XII) were determined at different field strengths at 37° C. in pH 7.4 HEPES buffer. The relaxivity was obtained from the slope of a plot of 1/T1 vs. [Mn] for different Mn concentrations. Since Formula (XI) contains 6 Mn per molecule, the ionic (per Mn) and molecular (per molecule) relaxivities are given below.

Compound: O=C([O-])CN(CC(=O)[O-])C1CCCCC1N(CC(=O)[O-])Cc1ccccc1[O-].[Mn+2].[Na+].[Na+] (racemic) [Compound 20, Na2[Mn^IIcycHBET]]
- r1 (relaxivity) [1]: 3.26 mM⁻¹ s⁻¹

Compound: O=C([O-])CN(CCN(CC(=O)[O-])Cc1ccccc1[O-])CC(=O)[O-].[Mn+2].[Na+].[Na+] [Compound 4, Na2[Mn^IIHBET]]
- r1 (relaxivity) [1]: 2.76 mM⁻¹ s⁻¹
- Half-cell potential [2]: 379 mV

Compound: O=C([O-])CN(CCN(CC(=O)[O-])Cc1ccccc1[O-])CC(=O)[O-].[Mn+3].[Na+] [Compound 5, Na[Mn^IIIHBET]]
- r1 (relaxivity) [1]: 1.05 mM⁻¹ s⁻¹
- fold higher relaxivity of reduced form vs oxidized form [3]: 3.3 fold
- overall second-order rate constant of reduction by glutathione [4]: (3.8±0.3)×10^−1 M^−1s^−1

Compound: COc1ccc([O-])c(CN(CCN(CC(=O)[O-])CC(=O)[O-])CC(=O)[O-])c1.[Mn+2].[Na+].[Na+] [Compound 9, Na2[Mn^IIHBET-OMe]]
- r1 (relaxivity) [1]: 3.11 mM⁻¹ s⁻¹
- Half-cell potential [2]: 344 mV

Compound: O=C([O-])CN(CCN(CC(=O)[O-])Cc1cc([N+](=O)[O-])ccc1[O-])CC(=O)[O-].[Mn+2].[Na+].[Na+] [Compound 13, Na2[Mn^IIHBET-NO2]]
- r1 (relaxivity) [1]: 2.28 mM⁻¹ s⁻¹

Compound: O=C([O-])CN(CCN(CC(=O)[O-])Cc1cc([N+](=O)[O-])ccc1[O-])CC(=O)[O-].[Mn+3].[Na+] [Compound 14, Na[Mn^IIIHBET-NO2]]
- r1 (relaxivity) [1]: 0.34 mM⁻¹ s⁻¹
- Half-cell potential [2]: 476 mV

Compound: O=C([O-])CN(CC(=O)[O-])C1CCCCC1N(CC(=O)[O-])Cc1ccccc1[O-].[Mn+3].[Na+] (stereo not shown) [Compound 21, Na[Mn^IIIcycHBET]]
- r1 (relaxivity) [1]: 1.56 mM⁻¹ s⁻¹
- Half-cell potential [2]: 365 mV

Compound: O=C([O-])CN(CC(=O)[O-])C1CCCCC1N(CC(=O)[O-])Cc1cc([N+](=O)[O-])ccc1[O-].[Mn+2].[Na+].[Na+] (stereo not shown) [Compound 30, Na2[Mn^IIcycHBET-NO2)]]
- r1 (relaxivity) [1]: 2.30 mM⁻¹ s⁻¹

Compound: O=C([O-])CN(CC(=O)[O-])C1CCCCC1N(CC(=O)[O-])Cc1cc([N+](=O)[O-])ccc1[O-].[Mn+3].[Na+] (stereo not shown) [Compound 31, Na[Mn^IIIcycHBET-NO2]]
- Half-cell potential [2]: 488 mV

Compound: O=C([O-])CN(CCN(CC(=O)[O-])Cc1ccccc1[O-])Cc1ccccc1[O-].[Mn+3] [Mn^III-HBED, reference compound]
- half-cell potential (Mn^II/Mn^III) ([2]; TRIS buffer pH 7.4, vs. K4Fe(CN)6/K3Fe(CN)6): 0.016 V

Compound: Mn6[N3P3-(TyOH-EDTA)6] [(XI)]
- Relaxivity r1 (per Mn) ([5]; 0.47T): 9.07 mM⁻¹ s⁻¹
- Relaxivity r1 per molecule ([5]; 0.47T): 54.4 mM⁻¹ s⁻¹
- Relaxivity r1 (per Mn) ([5]; 1.4T): 9.28 mM⁻¹ s⁻¹
- Relaxivity r1 per molecule ([5]; 1.4T): 55.7 mM⁻¹ s⁻¹
- Relaxivity r1 (per Mn) ([5]; 4.7T): 6.54 mM⁻¹ s⁻¹
- Relaxivity r1 per molecule ([5]; 4.7T): 39.2 mM⁻¹ s⁻¹
- Relaxivity r1 (per Mn) ([5]; 9.4T): 4.94 mM⁻¹ s⁻¹
- Relaxivity r1 per molecule ([5]; 9.4T): 29.6 mM⁻¹ s⁻¹
- Relaxivity r1 (per Mn) ([5]; 11.7T): 3.57 mM⁻¹ s⁻¹
- Relaxivity r1 per molecule ([5]; 11.7T): 21.4 mM⁻¹ s⁻¹

Compound: Na[Mn(TyOH-EDTA)] [(XII)]
- Relaxivity r1 (per Mn) ([5]; 0.47T): 3.60 mM⁻¹ s⁻¹
- Relaxivity r1 (per Mn) ([5]; 1.4T): 2.80 mM⁻¹ s⁻¹
- Relaxivity r1 (per Mn) ([5]; 9.4T): 3.65 mM⁻¹ s⁻¹
- Relaxivity r1 (per Mn) ([5]; 11.7T): 3.05 mM⁻¹ s⁻¹

Compound: [Mn(CyP3A)] [(IX)]
- Relaxivity r1 ([1]; 1.41T, 37° C., pH 7.4 Tris buffer): 2.50 mM⁻¹ s⁻¹
